Experiment: recombinant barcode read abundance after kanamycin selection (control-corrected) (log10(CPM+1)); higher = more efficient recombination; sequences stand for … in AGTGCAGAGAAAATCGGCCAGTTTTCTCTGCCTGCAGTCCGCATGCCGT…AGATTTATGCAGCGGACTGCCTTTCTCCCAAAGTGATAAACCGGACAGTATCATGGACCGGTTTTCCCGGTAATCCGTATTTGCAAGGTTGGTTTCACT; site = the 11-nt target
Protocol: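 Pooled E. coli target-specificity screen for the IS621 bridge recombinase. Each library plasmid pairs an 11-nt target (CT core) with a bridge RNA whose target-binding loop (9-nt LTG + 4-nt RTG) is reprogrammed; the rest of the 177-nt WT IS621 bridge RNA scaffold is fixed. The plasmid is co-electroporated with a WT donor plasmid; recombinase is induced with 0.1 mM IPTG and recombinants are selected on kanamycin. Recombinant barcodes are sequenced, converted to CPM, averaged over two biological replicates and corrected by the unselected control CPM. Molecule = full bridge RNA written as DNA: LTG = specificity nt 1-9, RTG = reverse complement of specificity nt 8-11, in the WT scaffold.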
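Also: IS621 recombinase and bridge RNA in Escherichia coli cells.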

Point of comparison: “ACGCGGCCTTGGGTTCTAACCTGTTGCCT (site CCGCGGCCTAG)”, “recombinant barcode read abundance (log10)” value 0.42. Against it:
- ACCGCGACTTGGGTTCTAACCTGTTGCCT (site ACCGAGACTAG) — lower, 0.0792
- ACCGCGACTTGGGTTCTAACCTGTTGCCT (site ACCGCGACTAG) — lower, 0.0908
- ACCGCGACTTGGGTTCTAACCTGTTGCCT (site ACCGGGACTAG) — lower, 0.218
- ACCGCGACTTGGGTTCTAACCTGTTGCCT (site ACCGTGACTAG) — lower, 0.121
- ACCGCTTCTTGGGTTCTAACCTGTTGCCT (site AACGCTTCTAG) — lower, 0.096
- ACCGCTTCTTGGGTTCTAACCTGTTGCCT (site ACCGCTTCTAG) — within 0.2 log units, 0.494
- ACCGCTTCTTGGGTTCTAACCTGTTGCCT (site AGCGCTTCTAG) — lower, 0.0685
- ACCGCTTCTTGGGTTCTAACCTGTTGCCT (site ATCGCTTCTAG) — within 0.2 log units, 0.329
- ACCGTAGCTTGGGTTCTAACCTGTTGCCT (site ACCGTACCTAG) — within 0.2 log units, 0.33
- ACCGTAGCTTGGGTTCTAACCTGTTGCCT (site ACCGTAGCTAG) — higher, 1.07
- ACCGTGACTTGGGTTCTAACCTGTTGCCT (site ACCGAGACTAG) — lower, 0.0423
- ACCGTGACTTGGGTTCTAACCTGTTGCCT (site ACCGCGACTAG) — within 0.2 log units, 0.272
- ACCGTGACTTGGGTTCTAACCTGTTGCCT (site ACCGGGACTAG) — lower, 0.0292
- ACCGTGACTTGGGTTCTAACCTGTTGCCT (site ACCGTGACTAG) — higher, 1.96
- ACCTGACCTTGGGTTCTAACCTGTTGCGG (site ACCTGACCTCC) — higher, 1.6
- ACCTGACCTTGGGTTCTAACCTGTTGCGG (site CGGACTGCTAG) — lower, 0.12
- ACCTGCCCTTGGGTTCTAACCTGTTGCCT (site ACCTGACCTAG) — lower, 0.154
- ACCTGCCCTTGGGTTCTAACCTGTTGCCT (site ACCTGCCCTAG) — higher, 1.38
- ACCTGCCCTTGGGTTCTAACCTGTTGCCT (site ACCTGGCCTAG) — lower, 0.0614
- ACCTGCCCTTGGGTTCTAACCTGTTGCCT (site ACCTGTCCTAG) — within 0.2 log units, 0.232
- ACCTGTACTTGGGTTCTAACCTGTTGCCT (site ACCAGTACTAG) — lower, 0.0531
- ACCTGTACTTGGGTTCTAACCTGTTGCCT (site ACCCGTACTAG) — lower, 0.147
- ACCTGTACTTGGGTTCTAACCTGTTGCCT (site ACCGGTACTAG) — lower, 0.0956
- ACCTGTACTTGGGTTCTAACCTGTTGCCT (site ACCTGTACTAG) — lower, 0.183
- ACCTTAGCTTGGGTTCTAACCTGTTGCGG (site ACCCTAACTCC) — within 0.2 log units, 0.263
- ACCTTAGCTTGGGTTCTAACCTGTTGCGG (site ACCTTAGCTCC) — higher, 1.79
- ACCTTGCCTTGGGTTCTAACCTGTTGCCT (site ACATTGCCTAG) — lower, 0.178
- ACCTTGCCTTGGGTTCTAACCTGTTGCCT (site ACCTTGCCTAG) — lower, 0.012
- ACCTTGCCTTGGGTTCTAACCTGTTGCCT (site ACGTTGCCTAG) — higher, 0.875
- ACCTTGCCTTGGGTTCTAACCTGTTGCCT (site ACTTTGCCTAG) — lower, 0.0414
- ACGAATCCTTGGGTTCTAACCTGTTGCTT (site ACGAATCCTAA) — within 0.2 log units, 0.423
- ACGAATCCTTGGGTTCTAACCTGTTGCTT (site ACGACTCCTAA) — lower, 0.0122
- ACGAATCCTTGGGTTCTAACCTGTTGCTT (site ACGAGTCCTAA) — within 0.2 log units, 0.461
- ACGAATCCTTGGGTTCTAACCTGTTGCTT (site ACGATTCCTAA) — lower, 0.0624
- ACGACTCCTTGGGTTCTAACCTGTTGCTG (site ACGACTCCTCA) — within 0.2 log units, 0.485
- ACGACTCCTTGGGTTCTAACCTGTTGCTG (site ACGCCTCCTCA) — lower, 0.0825
- ACGACTCCTTGGGTTCTAACCTGTTGCTG (site ACGGCTCCTCA) — lower, 0.0665
- ACGACTCCTTGGGTTCTAACCTGTTGCTG (site ACGTCTCCTCA) — lower, 0.0836
- ACGACTCCTTGGGTTCTAACCTGTTGCTT (site ACGAATCCTAA) — within 0.2 log units, 0.224
- ACGACTCCTTGGGTTCTAACCTGTTGCTT (site ACGACTCCTAA) — lower, 0.0167
- ACGACTCCTTGGGTTCTAACCTGTTGCTT (site ACGAGTCCTAA) — lower, 0.0152
- ACGACTCCTTGGGTTCTAACCTGTTGCTT (site ACGATTCCTAA) — lower, 0.0399
- ACGACTTCTTGGGTTCTAACCTGTTGCCT (site ACGACTACTAG) — lower, 0.0265
- ACGACTTCTTGGGTTCTAACCTGTTGCCT (site ACGACTCCTAG) — lower, 0.167
- ACGACTTCTTGGGTTCTAACCTGTTGCCT (site ACGACTGCTAG) — lower, 0
- ACGACTTCTTGGGTTCTAACCTGTTGCCT (site ACGACTTCTAG) — higher, 0.731
- ACGAGTCCTTGGGTTCTAACCTGTTGCTT (site ACGAATCCTAA) — within 0.2 log units, 0.365
- ACGAGTCCTTGGGTTCTAACCTGTTGCTT (site ACGACTCCTAA) — lower, 0.161
- ACGAGTCCTTGGGTTCTAACCTGTTGCTT (site ACGAGTCCTAA) — within 0.2 log units, 0.606
- ACGAGTCCTTGGGTTCTAACCTGTTGCTT (site ACGATTCCTAA) — lower, 0.0892
- ACGCCTCCTTGGGTTCTAACCTGTTGCTG (site ACGACTCCTCA) — lower, 0.0447
- ACGCCTCCTTGGGTTCTAACCTGTTGCTG (site ACGCCTCCTCA) — within 0.2 log units, 0.384
- ACGCCTCCTTGGGTTCTAACCTGTTGCTG (site ACGGCTCCTCA) — within 0.2 log units, 0.269
- ACGCCTCCTTGGGTTCTAACCTGTTGCTG (site ACGTCTCCTCA) — lower, 0.175
- ACGCGGCCTTGGGTTCTAACCTGTTGCCT (site ACGCGGCCTAG) — lower, 0.103
- ACGCGGCCTTGGGTTCTAACCTGTTGCCT (site GCGCGGCCTAG) — lower, 0.147
- ACGCGGCCTTGGGTTCTAACCTGTTGCCT (site TCGCGGCCTAG) — lower, 0.108
- ACGCGTGCTTGGGTTCTAACCTGTTGCGG (site ACGCGTGCTCC) — higher, 0.727
- ACGCGTGCTTGGGTTCTAACCTGTTGCGG (site CTAGTAACTTG) — lower, 0.019
- ACGGAATCTTGGGTTCTAACCTGTTGCCG (site ACGGAATCTCG) — within 0.2 log units, 0.46
- ACGGAATCTTGGGTTCTAACCTGTTGCCG (site TAAATCCCTTC) — within 0.2 log units, 0.245
- ACGGAGTCTTGGGTTCTAACCTGTTGCTA (site ACGGAGTCTTA) — higher, 1.3
- ACGGAGTCTTGGGTTCTAACCTGTTGCTA (site TACAGACCTCT) — lower, 0.0854
- ACGGCTACTTGGGTTCTAACCTGTTGCTT (site ACGGCTACTAA) — higher, 0.83
- ACGGCTACTTGGGTTCTAACCTGTTGCTT (site GGTTAGTCTCG) — lower, 0.0618
